Test results from ChEMBL document CHEMBL1201862, “PubChem BioAssay data set” (2004).
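Dose response: 5 concentrations. Exposure: 48 h. Format: 96-well plates. Endpoint: linear interpolation; highest concentration if not reached. GI50 = concentration required for 50% inhibition of growth.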 Active and inactive are the calls of the source. Cut-off read from the data, not from the text of the source: active = GI50 up to about 1.1 µM and inactive = higher.

Tests used:
Assay in all cases: NCI-60 cell line screen, 48 h
ACHN = tested on: ACHN
CCRF-CEM = tested on: CCRF-CEM
HL-60 = tested on: HL-60
LOX IMVI = tested on: LOX IMVI
M14 = tested on: M14
MDA-MB-231 = tested on: MDA-MB-231
MDA-N = tested on: MDA-N
NCI-H522 = tested on: NCI-H522
SK-OV-3 = tested on: SK-OV-3
SN12C = tested on: SN12C
SR = tested on: SR
TK-10 = tested on: TK-10
UACC-257 = tested on: UACC-257
UACC-62 = tested on: UACC-62
NCI/ADR-RES = tested on: NCI/ADR-RES
PC-3 = tested on: PC-3
SK-MEL-5 = tested on: SK-MEL-5
DMS-273 = tested on: DMS-273
M19-MEL = tested on: M19-MEL
XF498 = tested on: XF498

Measured: GI50

CC1CN=C(NCc2ccccc2)S1 (centres undefined)
inactive: ACHN > 100 µM | CCRF-CEM > 100 µM | HL-60 65 µM | LOX IMVI > 100 µM | M14 > 100 µM | MDA-MB-231 > 100 µM | MDA-N 28.4 µM | NCI-H522 > 100 µM | SK-OV-3 > 100 µM | SN12C > 100 µM | SR 29 µM | TK-10 > 100 µM | UACC-257 > 100 µM | UACC-62 > 100 µM

N#CCCC1C(C#N)C2(Cl)CC1(Cl)C(Cl)=C2Cl (centres undefined)
inactive: ACHN > 10 µM | CCRF-CEM > 10 µM | HL-60 > 10 µM | LOX IMVI > 10 µM | M14 > 10 µM | MDA-MB-231 > 10 µM | MDA-N > 10 µM | NCI-H522 3.59 µM | NCI/ADR-RES > 10 µM | PC-3 > 10 µM | SK-MEL-5 > 10 µM | SK-OV-3 > 10 µM | SN12C > 10 µM | TK-10 > 10 µM | UACC-62 > 10 µM

Cc1cn(C2CC(O)C(Cn3nncc3Cn3ncc(=O)[nH]c3=O)O2)c(=O)[nH]c1=O (centres undefined)
inactive: ACHN > 100 µM | CCRF-CEM > 100 µM | LOX IMVI > 100 µM | M14 > 100 µM | MDA-MB-231 > 100 µM | MDA-N > 100 µM | NCI/ADR-RES > 100 µM | PC-3 > 100 µM | SK-MEL-5 > 100 µM | SK-OV-3 77.1 µM | SN12C > 100 µM | TK-10 > 100 µM | UACC-257 > 100 µM | UACC-62 > 100 µM

CC[N+]1(C)CCC(O)(c2ccc(Cl)cc2)C(C(=O)c2ccc(Cl)cc2)C1 (centres undefined)
inactive: ACHN 19 µM | CCRF-CEM 2.74 µM | HL-60 7.83 µM | LOX IMVI 5.58 µM | M14 17.4 µM | MDA-MB-231 14.9 µM | MDA-N 19.1 µM | NCI-H522 1.79 µM | NCI/ADR-RES 24.2 µM | PC-3 17.5 µM | SK-OV-3 14.6 µM | SN12C 22.1 µM | SR 6.34 µM | TK-10 17.7 µM | UACC-257 24.4 µM | UACC-62 14.7 µM

CCCCOC(=O)CN1C(=O)c2ccccc2C1=O
inactive: ACHN > 100 µM | DMS-273 > 100 µM | HL-60 > 100 µM | LOX IMVI > 100 µM | M14 > 100 µM | M19-MEL > 100 µM | NCI-H522 > 100 µM | SK-MEL-5 > 100 µM | SK-OV-3 > 100 µM | SR > 100 µM | TK-10 > 100 µM | UACC-257 > 100 µM | UACC-62 > 100 µM | XF498 > 100 µM

CCC1=NC(C(F)(F)F)(C(F)(F)F)N=C(N2CCOCC2)O1
inactive: ACHN > 100 µM | CCRF-CEM > 100 µM | HL-60 > 100 µM | LOX IMVI > 100 µM | M14 > 100 µM | MDA-MB-231 > 100 µM | MDA-N > 100 µM | NCI-H522 > 100 µM | NCI/ADR-RES > 100 µM | PC-3 > 100 µM | SK-MEL-5 > 100 µM | SK-OV-3 > 100 µM | SN12C > 100 µM | SR > 100 µM | TK-10 > 100 µM | UACC-257 > 100 µM | UACC-62 > 100 µM

CC1(C)CCc2cc3c(-c4ccccc4)cc(=O)oc3cc2O1
inactive: ACHN > 100 µM | CCRF-CEM > 100 µM | DMS-273 > 100 µM | HL-60 > 100 µM | LOX IMVI > 100 µM | M14 > 100 µM | M19-MEL > 100 µM | NCI-H522 > 100 µM | SK-MEL-5 > 100 µM | SK-OV-3 > 100 µM | SN12C > 100 µM | TK-10 > 100 µM | UACC-62 > 100 µM | XF498 41 µM

CCOC(=O)c1csc(NC(=O)CN(C)C)n1
inactive: ACHN > 100 µM | CCRF-CEM > 100 µM | HL-60 > 100 µM | LOX IMVI > 100 µM | M14 > 100 µM | MDA-MB-231 > 100 µM | MDA-N > 100 µM | NCI/ADR-RES > 100 µM | PC-3 > 100 µM | SK-MEL-5 > 100 µM | SK-OV-3 > 100 µM | SR > 100 µM | TK-10 > 100 µM | UACC-257 > 100 µM | UACC-62 > 100 µM

O=c1c2ccccc2[nH]c2cc(O)cc(O)c12
inactive: ACHN 26.4 µM | CCRF-CEM 49 µM | DMS-273 35.1 µM | HL-60 > 100 µM | LOX IMVI 32.1 µM | M14 91 µM | M19-MEL 39.1 µM | NCI-H522 16.9 µM | SK-MEL-5 19.1 µM | SK-OV-3 85.5 µM | SN12C 61.4 µM | TK-10 > 100 µM | UACC-257 45 µM | UACC-62 > 100 µM | XF498 27.9 µM
